Laboratory results: ChEMBL document CHEMBL6134887, “Linker and Head-Group Exploration of Anti-MRSA Triaromatic Pleuromutilins” (J Med Chem, 2025)
Values after ≈ are worked out from the molar mass of the structure shown.

Tests used:
[1] = test system: Staphylococcus aureus; test: Antibacterial activity against methicillin resistant Staphylococcus aureus USA300 FPR3757 assessed as inhibition of bacterial growth incubated for 20 to 24 hrs by microbroth serial dilution method; assay type: functional; conditions: time 20-24 hrs, read-out: MIC100
[2] = Metabolic stability in mouse liver microsomes assessed as half-life at 1 uM measured up to 60 mins by LC-MS/MS analysis; assay type: ADME, Microsome
[3] = Metabolic stability in mouse liver assessed as intrinsic clearance at 1 uM measured up to 60 mins by LC-MS/MS analysis; assay type: ADME, tissue-based; conditions: read-out: CLH
[4] = Metabolic stability in human liver microsomes assessed as half-life at 1 uM measured up to 30 mins by LC-MS/MS analysis; assay type: ADME, Microsome
[5] = Metabolic stability in human liver assessed as intrinsic clearance at 1 uM measured up to 30 mins by LC-MS/MS analysis; assay type: ADME, tissue-based; conditions: read-out: CLH

Structure (SMILES) | MIC [1] [µg/mL] | half-life at 1 µM [2] [min] | CLint scaled at 1 µM [3] [L/h/kg] | half-life at 1 µM [4] [min] | CLint scaled at 1 µM [5] [L/h/kg]
C=C[C@]1(C)C[C@@H](OC(=O)Cn2cc(-c3ccc(Cn4cc(C)c(=O)[nH]c4=O)nc3)nn2)[C@]2(C)[C@H](C)CC[C@]3(CCC(=O)[C@H]32)[C@@H](C)[C@@H]1O | 0.12 (≈ 0.186 µM) |  |  |  | 
C=C[C@]1(C)C[C@@H](OC(=O)Cn2cc(-c3cncc(NC(=O)c4ccc(OC)nc4)c3)nn2)[C@]2(C)[C@H](C)CC[C@]3(CCC(=O)[C@H]32)[C@@H](C)[C@@H]1O | 0.12 (≈ 0.183 µM) | 0.57 | 574 | 2.4 | 154
C=C[C@]1(C)C[C@@H](OC(=O)Cn2cc(-c3ccc(C(=O)c4ccc5c(N)ncnn45)cn3)nn2)[C@]2(C)[C@H](C)CC[C@]3(CCC(=O)[C@H]32)[C@@H](C)[C@@H]1O | 0.06 (≈ 0.09 µM) | 0.54 | > 600 | 1.7 | 221
C=C[C@]1(C)C[C@@H](OC(=O)Cn2cc(-c3ccc(Cn4ccnc4)nc3)nn2)[C@]2(C)[C@H](C)CC[C@]3(CCC(=O)[C@H]32)[C@@H](C)[C@@H]1O | 1 (≈ 1.7 µM) | 2.4 | 140 | 6.2 | 60.3
C=C[C@]1(C)C[C@@H](OC(=O)Cn2cc(-c3ccc(Cn4ccnc4N)cc3)nn2)[C@]2(C)[C@H](C)CC[C@]3(CCC(=O)[C@H]32)[C@@H](C)[C@@H]1O | 0.5 (≈ 0.832 µM) |  |  |  | 
C=C[C@]1(C)C[C@@H](OC(=O)Cn2cc(-c3ccc(Cn4cnc(CO)c4)nc3)nn2)[C@]2(C)[C@H](C)CC[C@]3(CCC(=O)[C@H]32)[C@@H](C)[C@@H]1O | 2 (≈ 3.24 µM) |  |  |  | 
C=C[C@]1(C)C[C@@H](OC(=O)Cn2cc(-c3ccc(Cn4ccc5c(N)ncnc54)cc3)nn2)[C@]2(C)[C@H](C)CC[C@]3(CCC(=O)[C@H]32)[C@@H](C)[C@@H]1O | 0.06 (≈ 0.0921 µM) |  |  |  | 
C=C[C@]1(C)C[C@@H](OC(=O)Cn2cc(-c3ccc(Cn4cnc5c(=O)[nH]c(N)nc54)nc3)nn2)[C@]2(C)[C@H](C)CC[C@]3(CCC(=O)[C@H]32)[C@@H](C)[C@@H]1O | 8 (≈ 11.9 µM) |  |  |  | 
C=C[C@]1(C)C[C@@H](OC(=O)Cn2cc(-c3ccc(Cn4ccc(N)nc4=O)nc3)nn2)[C@]2(C)[C@H](C)CC[C@]3(CCC(=O)[C@H]32)[C@@H](C)[C@@H]1O | 8 (≈ 12.7 µM) |  |  |  | 
C=C[C@]1(C)C[C@@H](OC(=O)Cn2cc(-c3cccc(Oc4ncnc5[nH]cnc45)c3)nn2)[C@]2(C)[C@H](C)CC[C@]3(CCC(=O)[C@H]32)[C@@H](C)[C@@H]1O | 0.12 (≈ 0.188 µM) |  |  |  | 
C=C[C@]1(C)C[C@@H](OC(=O)Cn2cc(-c3ccc(NC(=O)c4ccccc4)cc3)nn2)[C@]2(C)[C@H](C)CC[C@]3(CCC(=O)[C@H]32)[C@@H](C)[C@@H]1O | 4 (≈ 6.4 µM) |  |  |  | 
C=C[C@]1(C)C[C@@H](OC(=O)Cn2cc(-c3ccc(Cn4ccc(=O)[nH]c4=O)cc3)nn2)[C@]2(C)[C@H](C)CC[C@]3(CCC(=O)[C@H]32)[C@@H](C)[C@@H]1O | 0.12 (≈ 0.191 µM) |  |  |  | 
O=C(O)Cc1ccccc1Nc1c(Cl)cccc1Cl [DICLOFENAC] |  | 20.2 | 16.3 |  | 
C=C[C@]1(C)C[C@@H](OC(=O)Cn2cc(-c3cncc(NC(=O)c4ccc(OC)cc4)c3)nn2)[C@]2(C)[C@H](C)CC[C@]3(CCC(=O)[C@H]32)[C@@H](C)[C@@H]1O | 0.06 (≈ 0.0915 µM) | 0.56 | 591 | 1.7 | 219
C=C[C@]1(C)C[C@@H](OC(=O)Cn2cc(-c3cncc(C(=O)Nc4ncnc5[nH]cnc45)c3)nn2)[C@]2(C)[C@H](C)CC[C@]3(CCC(=O)[C@H]32)[C@@H](C)[C@@H]1O | 0.06 (≈ 0.0899 µM) | 1.3 | 246 | 3.6 | 104
C=C[C@]1(C)C[C@@H](OC(=O)Cn2cc(-c3cccc(Oc4nc(N)nc5[nH]cnc45)c3)nn2)[C@]2(C)[C@H](C)CC[C@]3(CCC(=O)[C@H]32)[C@@H](C)[C@@H]1O | 0.12 (≈ 0.183 µM) |  |  |  | 
C=C[C@]1(C)C[C@@H](OC(=O)Cn2cc(-c3cccc(C(=O)Nc4ccccc4)c3)nn2)[C@]2(C)[C@H](C)CC[C@]3(CCC(=O)[C@H]32)[C@@H](C)[C@@H]1O | 0.25 (≈ 0.4 µM) |  |  |  | 
C=C[C@]1(C)C[C@@H](OC(=O)Cn2cc(-c3ccc(C(O)c4ccc5c(N)ncnn45)cn3)nn2)[C@]2(C)[C@H](C)CC[C@]3(CCC(=O)[C@H]32)[C@@H](C)[C@@H]1O (stereo not given in full) | 0.03 (≈ 0.0449 µM) | 0.66 | 500 | 1.4 | 275
C=C[C@]1(C)C[C@@H](OC(=O)Cn2cc(-c3ccc(CNc4cc(N)ncn4)cc3)nn2)[C@]2(C)[C@H](C)CC[C@]3(CCC(=O)[C@H]32)[C@@H](C)[C@@H]1O | 0.03 (≈ 0.0478 µM) | 0.55 | > 600 | 1.3 | 289

Structure (SMILES) | MIC [1] [µg/mL] | half-life at 1 µM [2] [min] | CLint scaled at 1 µM [3] [L/h/kg] | half-life at 1 µM [4] [min] | CLint scaled at 1 µM [5] [L/h/kg]
C=C[C@]1(C)C[C@@H](OC(=O)Cn2cc(-c3ccc(CNc4cc(N)ncn4)nc3)nn2)[C@]2(C)[C@H](C)CC[C@]3(CCC(=O)[C@H]32)[C@@H](C)[C@@H]1O | 0.06 (≈ 0.0954 µM) |  |  |  | 
C=C[C@]1(C)C[C@@H](OC(=O)Cn2cc(-c3cncc(C(O)c4ccc5c(N)ncnn45)c3)nn2)[C@]2(C)[C@H](C)CC[C@]3(CCC(=O)[C@H]32)[C@@H](C)[C@@H]1O (stereo not given in full) | 0.25 (≈ 0.374 µM) | 2.5 | 131 | 5.4 | 68.8
C=C[C@]1(C)C[C@@H](OC(=O)Cn2cc(-c3cncc(C(=O)Nc4ccc(N)cc4)c3)nn2)[C@]2(C)[C@H](C)CC[C@]3(CCC(=O)[C@H]32)[C@@H](C)[C@@H]1O | 0.12 (≈ 0.187 µM) |  |  |  | 
C=C[C@]1(C)C[C@@H](OC(=O)Cn2cc(-c3cncc(C(=O)Nc4ccccn4)c3)nn2)[C@]2(C)[C@H](C)CC[C@]3(CCC(=O)[C@H]32)[C@@H](C)[C@@H]1O | 0.06 (≈ 0.0957 µM) |  |  |  | 
C=C[C@]1(C)C[C@@H](OC(=O)Cn2cc(-c3ccnc(NC(=O)c4cnc(OC)cn4)c3)nn2)[C@]2(C)[C@H](C)CC[C@]3(CCC(=O)[C@H]32)[C@@H](C)[C@@H]1O | 0.25 (≈ 0.38 µM) |  |  |  | 
C=C[C@]1(C)C[C@@H](OC(=O)Cn2cc(-c3ccc(Cn4cnc5c(N)ncnc54)c(O)c3)nn2)[C@]2(C)[C@H](C)CC[C@]3(CCC(=O)[C@H]32)[C@@H](C)[C@@H]1O |  | 0.56 | 586 |  | 
C=C[C@]1(C)C[C@@H](OC(=O)Cn2cc(-c3ccc(C(O)c4ccc5c(N)ncnn45)cc3)nn2)[C@]2(C)[C@H](C)CC[C@]3(CCC(=O)[C@H]32)[C@@H](C)[C@@H]1O (stereo not given in full) | 0.06 (≈ 0.0898 µM) |  |  |  | 
C=C[C@]1(C)C[C@@H](OC(=O)Cn2cc(-c3ccc(Cn4ccc5c(N)ncnc54)c(O)c3)nn2)[C@]2(C)[C@H](C)CC[C@]3(CCC(=O)[C@H]32)[C@@H](C)[C@@H]1O | 0.06 (≈ 0.0898 µM) |  |  |  | 
C=C[C@]1(C)C[C@@H](OC(=O)Cn2cc(-c3ccc(Cn4cncc4CO)nc3)nn2)[C@]2(C)[C@H](C)CC[C@]3(CCC(=O)[C@H]32)[C@@H](C)[C@@H]1O | 2 (≈ 3.24 µM) |  |  |  | 
C=C[C@]1(C)C[C@@H](OC(=O)Cn2cc(-c3ccc(Cn4cnc5c(=O)[nH]c(N)nc54)cc3)nn2)[C@]2(C)[C@H](C)CC[C@]3(CCC(=O)[C@H]32)[C@@H](C)[C@@H]1O | 2 (≈ 2.99 µM) |  |  |  | 
C=C[C@]1(C)C[C@@H](OC(=O)Cn2cc(-c3cncc(C(=O)Nc4ccc(OC)cc4)c3)nn2)[C@]2(C)[C@H](C)CC[C@]3(CCC(=O)[C@H]32)[C@@H](C)[C@@H]1O | 0.12 (≈ 0.183 µM) |  |  |  | 
C=C[C@]1(C)C[C@@H](OC(=O)Cn2cc(-c3cccc(C(=O)Nc4ncnc5[nH]cnc45)c3)nn2)[C@]2(C)[C@H](C)CC[C@]3(CCC(=O)[C@H]32)[C@@H](C)[C@@H]1O | 0.12 (≈ 0.18 µM) | 1.2 | 276 | 2.7 | 140
C=C[C@]1(C)C[C@@H](OC(=O)Cn2cc(-c3ccc(NC(=O)c4ccc(OC)cc4)cc3)nn2)[C@]2(C)[C@H](C)CC[C@]3(CCC(=O)[C@H]32)[C@@H](C)[C@@H]1O | 8 (≈ 12.2 µM) |  |  |  | 
C=C[C@]1(C)C[C@@H](OC(=O)Cn2cc(-c3cncc(NC(=O)c4c[nH]c(=O)cn4)c3)nn2)[C@]2(C)[C@H](C)CC[C@]3(CCC(=O)[C@H]32)[C@@H](C)[C@@H]1O | 1 (≈ 1.55 µM) |  |  |  | 
C=C[C@]1(C)C[C@@H](OC(=O)Cn2cc(-c3ccc(Cn4cnc5c(=O)[nH]cnc54)cc3)nn2)[C@]2(C)[C@H](C)CC[C@]3(CCC(=O)[C@H]32)[C@@H](C)[C@@H]1O | 0.06 (≈ 0.0918 µM) |  |  |  | 
C=C[C@]1(C)C[C@@H](OC(=O)Cn2cc(-c3ccc(Cn4ccnc4)cc3)nn2)[C@]2(C)[C@H](C)CC[C@]3(CCC(=O)[C@H]32)[C@@H](C)[C@@H]1O | 0.25 (≈ 0.427 µM) |  |  |  | 
C=C[C@]1(C)C[C@@H](OC(=O)Cn2cc(-c3cccc(NC(=O)c4ccc(OC)nc4)c3)nn2)[C@]2(C)[C@H](C)CC[C@]3(CCC(=O)[C@H]32)[C@@H](C)[C@@H]1O | 0.12 (≈ 0.183 µM) |  |  |  | 
C=C[C@]1(C)C[C@@H](OC(=O)Cn2cc(-c3cccc(NC(=O)c4ccccc4)c3)nn2)[C@]2(C)[C@H](C)CC[C@]3(CCC(=O)[C@H]32)[C@@H](C)[C@@H]1O | 0.25 (≈ 0.4 µM) |  |  |  | 
